Converted amounts (≈) assume the structure as drawn.
How the values were obtained:
E. coli ATCC25922 strain = test: MIC 50, broth micro-dilution, wild-type Escherichia coli; assay type: cell-based; settings: MH2, 18 h
Source text: (§1) 3.1 Against E. coli Strains
(§2) Tested reference compounds. Amikacin sulfate (Cat. No. 01693, Chem-Impex), Gentamicin sulfate (Cat. No. G4918, Sigma Aldrich).
(§3) Microbial strains. E. coli ATCC 25922, E. coli ATCC 25922/pET-9b(+), E. coli ATCC 25922/pAT21-1, E. coli ATCC 25922/pBluescript::AAC(6′)-Ie/APH(2″)-Ia, E. coli ATCC 25922/pBlue_lpp_aacC3_rrnC, E. coli ATCC 25922/pSET152.
(§4) Culture media and equipment. BBL™ Mueller Hinton Broth 2 (Lot. BCBW1143, Cat. No. 70192, Sigma); Kanamycin A (Cat. No. A1493, AppliChem); 96-well deep well plate, 1 mL (Cat. No. 0030506.200, Eppendorf); Plate lids (Cat. No. 0030131.525, Eppendorf); 96-well plate, F-bottom (Cat. No. 781602, Brand; Incubator, Infors Multitron Pro); Laminar flow (Heraeus KS12); UV/VIS meter (Eppendorf BioPhotometer Plus); Platereader (Tecan Sunrise).
(§5) Compound preparation. Compounds were prepared in MH2 media at a concentration of 5 mM and stored at 4° C. For testing, solutions of 128 μM were prepared in MH2. Out of these working solutions, 400 μL was transferred to wells in the first column of 96-well deep well plates. Each compound was transferred in triplicate. Plates were previously filled with 200 μL of MH2 media in all wells except for the wells in the first column. After compound and antibiotic addition, the compounds were serial two-fold diluted by transferring 200 μL from the first to the second column, then from the second to the third column and so on. Finally, 200 μL was removed from the last column.
(§6) Inoculum preparation. Microorganisms used were all revived from 20% glycerol (40% v/v glycerol in water was diluted with MH2) storage at −80° C. by inoculating them in 5 mL MH2. inoculums of E. coli containing a plasmid were selected for by adding 50 μg/mL KanaA. The Inoculums were grown to an optical density (measured by UV/Vis spectroscopy) of 0.6-0.8 at 600 nm. Out of these suspensions, actual inoculums were prepared by diluting them to an optical density (OD) of 0.1 in MH2 media. From these inoculums, 200 μL was transferred to each well, resulting in a final compound concentration range of 64 μM-31.3 nM. All plates were incubated at 900 rpm and 70% rH for 18 h at 37° C.
MIC determination. After 18 h of growth, 200 μL was transferred to a 96-well F-bottom plate. The optical density was determined by a plate reader at 600 nm, with 10 s shaking before reading. Triplicate measurements were averaged, and a growth curve was plotted in Microsoft Excel. The first column in which the growth reached half the value of maximum growth was determined as the MIC50 value for that particular compound.
MIC50. The MIC50 of a compound was assigned at which the bacterial growth reached half the value of maximum growth.

E. coli (AAC(3)IV) = test: MIC 50, broth micro-dilution, E. coli expressing AAC(3)IV; assay type: cell-based, Escherichia coli
Method: Plasmid transformation. Approximately 500 ng of the pET-9b(+) (Cat. No. 69432-3, Merck), pAT21-1 (provided by Prof. Dr. Patrice Courvalin, M.D., Pasteur Institute, France; prepared according to Trieu-Cuot et. al, Mol. Gen. Genet. 198(2), 348 (1985)), pBluescript::AAC(6′)-Ie/APH(2″)-Ia (provided by Prof. Dr. Sergei Vakulenko, M.D., University of Notre Dame, Ind., USA; prepared according to S. B. Vakulenko et. al., J. Biol. Chem. 287 (52), 43262 (2012)), pBlue_lpp_aacC3_rrnC and pSET152 (Cat. No. PVT3395, Life Science Market; prepared according to Bierman et al., Gene 116 (1), 43 (1992)) plasmids, encoding APH(3′)-Ia (SEQ ID NO:2), APH(3′)-IIIa (SEQ ID NO:3), AAC(6′)Ie-APH(2″)-Ia (SEQ ID NO:4), AAC(3)-III (SEQ ID NO:1), and AAC(3)-IV (SEQ ID NO:5) respectively, were individually incubated in a vial of competent cells for 15 min on ice. The cells were subsequently heated to 42° C. for 90 s, and cooled on ice for 1 min. After addition of 900 μL LB, the cells were incubated for 1 h at 37° C. and 200 rpm. Cells were plated on LB-agar supplemented with 50 μg/mL KanaA and incubated for 18 h at 37° C. The next day, a single colony was inoculated in 5 mL LB supplemented with 50 μg/mL and grown for 18 h at 37° C. and 200 rpm. A 200 μL sample of each culture was diluted with 200 μL of 40% v/v glycerol in water, and stored at −80° C. The plasmid was purified from the remaining culture using the Plasmid Miniprep kit. Plasmid DNA was investigated by Eurofins Genomics (Germany) to confirm the identity of the aminoglycoside resistance genes.
as §1, §2, §3, §4, §5, §6
MIC determination. After 18 h of growth, 200 μL was transferred to a 96-well F-bottom plate. The optical density was determined by a plate reader at 600 nm, with 10 s shaking before reading. Triplicate measurements were averaged, and a growth curve was plotted in Microsoft Excel. […]

[1] = ATCC25922 harboring plasmid encoding AAC(3)IV
[2] = Escherichia coli, ATCC25922, 18 h
[3] = Escherichia coli, ATCC25922, ATCC25922 harboring plasmid encoding AAC(3)IV

Row | Structure (SMILES) | MIC50 (E. coli ATCC25922 strain) | MIC50 (E. coli (AAC(3)IV); [1]) | MIC50 (E. coli ATCC25922 strain; [2]) | MIC50 (E. coli (AAC(3)IV); [3])
1 | NCC[C@H](O)C(=O)N[C@@H]1C[C@H](N)[C@@H](O[C@H]2O[C@H](CN)[C@@H](O)[C@@H](O)[C@H]2O)[C@H](O)[C@H]1O[C@H]1O[C@H](CO)[C@@H](O)[C@H](N)[C@H]1O [ABX3002, 3′Epi-KanaA-AHB] | 16 to 32 µM | 32 µM (≈ 18.7 µg/mL) |  | 
2 | N=C(N)NC1[C@@H](O)C(OC2[C@@H](F)[C@H](O[C@H]3OC(CN)[C@@H](O)[C@H](O)C3O)C(N)C[C@H]2NC(=O)[C@@H](O)CCN)O[C@H](CO)[C@H]1O (stereo partly drawn) [ABX3003, 3′epi-KanaA-AHB-F-Gua] |  |  | 2 µM (≈ 1.26 µg/mL) | 4 µM (≈ 2.52 µg/mL)
3 | NCCC(O)C(=O)NC1CC(N)C(OC2OC(CN)C(O)C(O)C2O)C(F)C1OC1OC(CO)C(O)C(N)C1O (stereo not drawn) [ABX3005, 3′Epi-KanaA-AHB-F] | 4 µM (≈ 2.35 µg/mL) | 8 to 16 µM |  | 
4 | NCCC(O)C(=O)NC1CC(N)C(OC2OC(CN)C(O)C(O)C2N)C(O)C1OC1OC(CO)C(O)C(N)C1O (centres unmarked) [ABX4001, KanaB-AHB] | 2 µM (≈ 1.17 µg/mL) | 4 µM (≈ 2.34 µg/mL) |  | 
5 | NCC[C@H](O)C(=O)N[C@@H]1CC(N)[C@@H](O[C@H]2OC(CN)[C@@H](O)[C@@H](O)C2N)[C@H](O)C1OC1O[C@H](CO)[C@@H](O)C(N)[C@H]1O (stereo partly drawn) [ABX4002, 3′Epi-KanaB-AHB] | 8 µM (≈ 4.68 µg/mL) | 8 to 16 µM |  | 
6 | NCC[C@H](O)C(=O)N[C@@H]1CC(N)[C@@H](O[C@H]2OC(CN)[C@@H](O)[C@@H](O)C2N)[C@H](F)C1OC1O[C@H](CO)[C@@H](O)C(N)[C@H]1O (stereo partly drawn) [ABX4003, 3′Epi-KanaB-AHB-F] | 4 to 8 µM | 8 to 16 µM |  | 
7 | N=C(N)NC1[C@@H](O)C(OC2[C@@H](F)[C@H](O[C@H]3OC(CN)[C@@H](O)[C@H](O)C3N)C(N)C[C@H]2NC(=O)[C@@H](O)CCN)O[C@H](CO)[C@H]1O (stereo partly drawn) [ABX4004, 3′epi-KanaB-AHB-F-Gua] | 1 to 2 µM | 4 µM (≈ 2.51 µg/mL) |  | 
8 | N=C(N)N[C@@H]1[C@@H](O)[C@@H](O[C@@H]2[C@@H](O)[C@H](O[C@H]3O[C@H](CN)[C@@H](O)[C@@H](O)[C@H]3N)[C@@H](N)C[C@H]2NC(=O)[C@@H](O)CCN)O[C@H](CO)[C@H]1O [ABX4005, 3′Epi-KanaB-AHB-Gua] | 4 µM (≈ 2.51 µg/mL) | 16 µM (≈ 10 µg/mL) |  | 
9 | N=C(N)NC1[C@@H](O)C(OC2[C@@H](F)[C@H](O[C@H]3OC(CN)[C@@H](O)[C@H](O)C3N)C(N)C[C@H]2NC(=O)[C@@H](O)CCN)O[C@H](CO)[C@H]1O (some centres unmarked) [ABX4006, KanaB-AHB-F-Gua] |  |  |  | 2 µM (≈ 1.26 µg/mL)
10 | NCCC(O)C(=O)NC1CC(N)C(OC2OC(CN)C(O)C(O)C2N)C(F)C1OC1OC(CO)C(O)C(N)C1O (centres unmarked) [ABX4007, KanaB-AHB-F] | 1 µM (≈ 0.587 µg/mL) | 4 to 8 µM |  | 
11 | N=C(N)NC1[C@@H](O)C(OC2[C@@H](O)[C@H](O[C@H]3OC(CN)[C@@H](O)[C@H](O)C3N)C(N)C[C@H]2NC(=O)[C@@H](O)CCN)O[C@H](CO)[C@H]1O (some centres unmarked) [ABX4009, KanaB-AHB-Gua] | 2 µM (≈ 1.25 µg/mL) | 8 µM (≈ 5.01 µg/mL) |  | 
12 | NCC[C@H](O)C(=O)N[C@@H]1CC(N)[C@@H](O[C@H]2OC(CN)[C@@H](O)CC2N)[C@H](O)C1OC1O[C@H](CO)[C@@H](O)C(N)[C@H]1O (some centres unmarked) [ABX5004, Tobra-AHB] | 2 µM (≈ 1.14 µg/mL) | 4 µM (≈ 2.27 µg/mL) |  | 
13 | N=C(N)NC1[C@@H](O)C(OC2[C@@H](O)[C@H](O[C@H]3OC(CN)[C@@H](O)CC3N)C(N)C[C@H]2NC(=O)[C@@H](O)CCN)O[C@H](CO)[C@H]1O (some centres unmarked) [ABX5005, Tobra-AHB-Gua] | 1 to 2 µM | 1 to 2 µM |  | 
14 | N=C(N)NC1C(O)[C@@H](CO)OC(OC2C(F)[C@H](O[C@H]3OC(CN)[C@@H](O)CC3N)C(N)C[C@H]2NC(=O)[C@@H](O)CCN)[C@@H]1O (some centres unmarked) [ABX5006, Tobra-AHB-F-Gua] |  |  | < 0.25 µM | 0.5 to 1 µM (≈ 0.306 to 0.613 µg/mL)
15 | N=C(NCCN)NC1C(O)[C@@H](CO)OC(OC2C(F)[C@H](O[C@H]3OC(CN)[C@@H](O)CC3N)C(N)C[C@H]2NC(=O)[C@@H](O)CCN)[C@@H]1O (some centres unmarked) [ABX5020, Tobra-AHB-F-Gua-2-amino-ethyl] |  |  | 0.5 µM (≈ 0.328 µg/mL) | 1 µM (≈ 0.656 µg/mL)
16 | NCC[C@H](O)C(=O)N[C@@H]1CC(N)[C@@H](O[C@H]2OC(CN)[C@@H](O)CC2N)[C@H](F)C1OC1O[C@H](CO)[C@@H](O)C(N)[C@H]1O (some centres unmarked) [ABX5024, Tobra-AHB-F] | 1 µM (≈ 0.571 µg/mL) | 2 µM (≈ 1.14 µg/mL) |  | 
17 | CC(C)(C)CCNC(=N)NC1[C@@H](O)C(OC2[C@@H](F)[C@H](O[C@H]3OC(CN)[C@@H](O)CC3N)C(N)C[C@H]2NC(=O)[C@@H](O)CCN)O[C@H](CO)[C@H]1O (some centres unmarked) [ABX5025, Tobra-AHB-F-Gua 2-tBu-ethyl] |  |  | 0.25 to 0.5 µM (≈ 0.174 to 0.348 µg/mL) | 2 µM (≈ 1.39 µg/mL)
18 | N=C(NC[C@@H]1CCCN1)NC1[C@@H](O)C(OC2[C@@H](F)[C@H](O[C@H]3OC(CN)[C@@H](O)CC3N)C(N)C[C@H]2NC(=O)[C@@H](O)CCN)O[C@H](CO)[C@H]1O (stereo partly drawn) [ABX5026, Tobra-AHB-F-Gua (S) pyrrolidine-2-yl-methyl] |  |  | 0.25 µM (≈ 0.174 µg/mL) | 0.5 µM (≈ 0.348 µg/mL)
19 | N=C(NCC1CC1)NC1[C@@H](O)C(OC2[C@@H](F)[C@H](O[C@H]3OC(CN)[C@@H](O)CC3N)C(N)C[C@H]2NC(=O)[C@@H](O)CCN)O[C@H](CO)[C@H]1O (some centres unmarked) [ABX5027, Tobra-AHB-F-Gua cyclopropylmethyl] |  |  | 0.5 µM (≈ 0.333 µg/mL) | 2 µM (≈ 1.33 µg/mL)
20 | N=C(NCCO)NC1[C@@H](O)C(OC2[C@@H](F)[C@H](O[C@H]3OC(CN)[C@@H](O)CC3N)C(N)C[C@H]2NC(=O)[C@@H](O)CCN)O[C@H](CO)[C@H]1O (some centres unmarked) [ABX5029, Tobra-AHB-F-Gua 2-hydroxy-ethyl] |  |  | 0.5 µM (≈ 0.328 µg/mL) | 2 µM (≈ 1.31 µg/mL)
21 | N=C(NCCCN)NC1[C@@H](O)C(OC2[C@@H](F)[C@H](O[C@H]3OC(CN)[C@@H](O)CC3N)C(N)C[C@H]2NC(=O)[C@@H](O)CCN)O[C@H](CO)[C@H]1O (some centres unmarked) [ABX5030, Tobra-AHB-F-Gua-3-amino-propyl] |  |  | 0.25 µM (≈ 0.167 µg/mL) | 0.5 µM (≈ 0.335 µg/mL)
